Two compounds from US11371055B2, “Herbicide resistance genes” (CORTEVA AGRISCIENCE LLC, priority 2005, dated 2022) can be followed below.

Assay [1] has as its system AAD-12 (v1) T0 Maverick soybean plants. In words: 2,4-D leaf paint (leaf flip assay) on T0 soybean. It counts as in vivo, Glycine max. Also on record: key to Leaf flip assay (18 HAT) Node N-1 / Leaf flip assay (18 HAT) Node N-2: 1 = Flip; 0 = No Flip. The note with it: for Leaf flip assay (18 HAT) Node N-1 / Leaf flip assay (18 HAT) Node N-2: 2,4-D leaf paint. From the text: Plants that are transferred to the greenhouse can be assayed for the presence of an active PAT gene further with a non-destructive manner by painting a section of leaf of the T0 primary transformant, or progeny thereof, with a glufosinate solution [0.05-2% v/v Liberty Herbicide, preferably 0.25-1.0% (v/v),=500-2000 ppm glufosinate, Bayer Crop Science]. Depending on the concentration used, assessment for glufosinate injury can be made 1-7 days after treatment. Plants can also be tested for 2,4-D tolerance in a non-destructive manner by selective application of a 2,4-D solution in water (0.25-1% v/v commercial 2,4-D dimethylamine salt formulation, preferably 0.5% v/v=2280 ppm 2,4-D ae) to the terminal leaflet of the newly expanding trifoliolate one or two, preferably two, nodes below the youngest emerging trifolioate. This assay allows assessment of 2,4-D sensitive plants 6 hours to several days after application by assessment of leaf flipping or rotation >90 degrees from the plane of the adjacent leaflets. Plants tolerant to 2,4-D will not respond to 2,4-D. To plants will be allowed to self fertilize in the greenhouse to give rise to T1 seed. T1 plants (and to the extent enough T0 plant clones are produced) will be sprayed with a range of herbicide doses to determine the level of herbicide protection afforded by AAD-12 (v1) and PAT genes in transgenic soybean. Rates of 2,4-D used on T0 plants will typically comprise one or two selective rates in the range of 100-1120 g ae/ha using a track sprayer as previously described. T1 plants will be treated with a wider herbicide dose ranging from 50-3200 g ae/ha 2,4-D. Likewise, T0 and T1 plants can be screened for glufosinate resistance by postemergence treatment with 200-800 and 50-3200 g ae/ha glufosinate, respectively. Glyphosate resistance (in plants transformed with constructs that contain EPSPS) or another glyphosate tolerance gene can be assessed in the T1 generation by postemergence applications of glyphosate with a dose range from 280-2240 g ae/ha glyphosate. Analysis of protein expression will occur as described in below. Individual T0 plants were assessed for the presence of the coding region of the gene of interest (AAD-12 (v1) or PAT v6) and copy number. Determination of the inheritance of AAD-12 (v1) will be made using T1 and T2 progeny segregation with respect to herbicide tolerance as described in previous examples.
A subset of the initial transformants were assessed in the T0 generation according to the methods above. […] PAT-only transformed plants responded the same at wildtype plants to leaf paint applications of 2,4-D

Assay [2] has as its system wildtype Maverick soybeans. In words: 2,4-D leaf paint (leaf flip assay) on wildtype soybean. The assay is classed as in vivo, Glycine max. Also on record: key to Leaf flip assay (18 HAT) Node N-2: 1 = Flip; 0 = No Flip. From the text: Plants that are transferred to the greenhouse can be assayed for the presence of an active PAT gene further with a non-destructive manner by painting a section of leaf of the T0 primary transformant, or progeny thereof, with a glufosinate solution [0.05-2% v/v Liberty Herbicide, preferably 0.25-1.0% (v/v),=500-2000 ppm glufosinate, Bayer Crop Science]. Depending on the concentration used, assessment for glufosinate injury can be made 1-7 days after treatment. Plants can also be tested for 2,4-D tolerance in a non-destructive manner by selective application of a 2,4-D solution in water (0.25-1% v/v commercial 2,4-D dimethylamine salt formulation, preferably 0.5% v/v=2280 ppm 2,4-D ae) to the terminal leaflet of the newly expanding trifoliolate one or two, preferably two, nodes below the youngest emerging trifolioate. […] Glyphosate resistance (in plants transformed with constructs that contain EPSPS) or another glyphosate tolerance gene can be assessed in the T1 generation by postemergence applications of glyphosate with a dose range from 280-2240 g ae/ha glyphosate. […] Individual T0 plants were assessed for the presence of the coding region of the gene of interest (AAD-12 (v1) or PAT v6) and copy number. […]
A subset of the initial transformants were assessed in the T0 generation according to the methods above. […]

For assay [3], the system named is KY160 control tobacco. Nature of the assay: Elevated 2,4-D DMA rates in greenhouse tobacco, sensitive control. The assay is classed as in vivo, Nicotiana tabacum. From the text: T1 AAD-12 (v1) plants from an event segregating 3R:1S when selected with 560 g ai/ha Liberty using the same protocol as previously described. T1 AAD-1 (v3) seed was also planted for transformed tobacco controls (see PCT/US2005/014737). Untransformed KY160 was served as the sensitive control. Plants were sprayed using a track sprayer set to 187 L/ha at 140, 560, 2240, 8960, and 35840 g ae/ha 2,4-D DMA and rated 3 and 14 DAT.

Assay [4] has as its system R-dichlorprop habituated BY2 tobacco cells. Nature of the assay: 2,4-D dose response of tobacco cell suspension (BY2). The assay is classed as cell-based. The note with it: LSBY2C medium. The procedure: A dose response study was conducted with both the R-dichlorprop habituated PHL cells and the R-dichlorprop habituated BY2 cells where R-dichlorprop was substituted directly for 2,4-D in culture media. Though the focus was on PHL, a dose response was also done with BY2 in case of possible future studies, as well as to help predict the dose response for PHL. For the dichlorprop habituated PHL dose response, the levels of 2,4-D used (on LSBY2C medium with R-dichlorprop) were 0 (the control), 1, 2, 3, 5, 8, 10, 12, 15, 18, 20, 40, 60, 80, […] mg/L 2,4-D. There were four replications per concentration. For the R-dichlorprop habituated BY2 dose response, the levels of 2,4-D used (on LSBY2C medium) were 0 (the control), 1, 2, 3, 5, 8, 10, 20, 30, 40, mg/L 2,4-D.

The test system of assay [5] is untransformed commercial rice cultivar Lamont. Nature of the assay: 2,4-D DMA tolerance, untransformed rice control. The assay is classed as in vivo, Oryza sativa. The note with it: Lemont Untransformed Control. From the text: The following T1 AAD-12 (v1) single segregating locus lines were planted into 3-inch pots containing Metro Mix media: pDAB4101(20)003 and pDAB4101(27)002. At 2-3 leaf stage were sprayed with 140 g ae/ha imazethapyr. Nulls were eliminated and individuals were sprayed at V3-V4 stage in the track sprayer set to 187 L/ha at 1120, 2240 or 4480 g ac/ha 2,4-D DMA (2×, 4×, and 8× typical commercial use rates, respectively). Plants were graded at 7 and 14 DAT and compared to untransformed commercial rice cultivar. ‘Lamont,’ as negative control plants.

Where [6] appears, read: 2,4-D solution applied to terminal leaflet.

Turning to `O=C(O)COc1ccc(Cl)cc1Cl` [2,4-D, 2,4-dichlorophenoxyacetic acid], the “Leaf flip assay (18 HAT) Node N-1” value in assay [1] (event D-1-14 (pDAB4464, AAD-12, CsVMV)) was determined as 0; in assay [1] (event D-3-6 (pDAB4468, AAD-12, AtUbi10)), 0; in assay [1] (event D-5-2 (pDAB4472, AAD-12, AtUbi3)) it was 0. Also, the “Leaf flip assay (18 HAT) Node N-2” value in assay [1] (event D-2-9 (pDAB4464, AAD-12, CsVMV)) was determined as 0; in assay [1] (event D-2-14 (pDAB4464, AAD-12, CsVMV)), 0; in assay [1] (event D-3-5 (pDAB4468, AAD-12, AtUbi10)), 0; in assay [1] (event D-3-7 (pDAB4468, AAD-12, AtUbi10)), 0; in assay [1] (event D-3-9 (pDAB4468, AAD-12, AtUbi10)), 0; in assay [1] (event D-4-11B (pDAB4468, AAD-12, AtUbi10)) it was 0. The “Leaf flip assay (18 HAT) Node N-2” value in assay [1] (event D-4-16 (pDAB4468, AAD-12, AtUbi10)) turned out to be 0; in assay [1] (event D-4-17 (pDAB4468, AAD-12, AtUbi10)), 0; in assay [1] (event D-9-1 (pDAB4480, AAD-12, AtAct2)), 0; in assay [2] (2,4-D leaf paint, Maverick WT plants (WT-10, WT-2)) it was 1. The “response to 2,4-D leaf painting” value was “did not respond” in assay [1] (setting [6]) and “did” in assay [2] (setting [6]). The “Average % injury 14 DAT” value turned out to be 95% in assay [3] (2240 g ae/ha 2,4-D), 99% in assay [3] (8960 g ae/ha 2,4-D) and 100% in assay [3] (35840 g ae/ha 2,4-D). Also, in assay [4], the “lethal concentration of 2,4-D” value was determined as 10 mg/L. Moreover, the “sub lethal concentration of 2,4-D” value in assay [4] is on record as 8 mg/L.
Turning to `CNC.O=C(O)COc1ccc(Cl)cc1Cl` [2,4-D DMA], the “Average % injury 14 DAT” value in assay [5] (1120 g ae/ha) was determined as 20%; in assay [5] (2240 g ae/ha) it was 35%; in assay [5] (4480 g ae/ha), 50%.
